{
  "source": "paper PMC4686643",
  "about": "(Frontiers in Molecular Neuroscience, 2015)",
  "key": {"[1]": {"tested_on": "GlyR α1 T162M protein in HEK293 cells", "experiment": "Protein degradation analysis on whole cell lysates (Western blot) with proteasome or lysosome inhibitors", "type": "cell-based, human", "settings": "for GlyR protein level after lysosomal block: leupeptin 200 μg/mL", "procedure": "(§1) HEK293 cells transiently expressing GlyR α1 wt or α1 variants were incubated under standard growth conditions with proteasome or lysosome inhibitors for specific time periods (all inhibitors have been obtained from Sigma-Aldrich, St. Louis, MO, USA). Cells were incubated with 1 μM of MG132 for 1, 2, and 4 h. The lysosome inhibitor leupeptin (200 μg/mL) was incubated for 6, 12, and 24 h together with the transfected cells.\n(§2) At each time point, media was aspirated and cells were washed twice with PBS followed by incubation with CytoBuster Protein Extraction Reagent (Merck Millipore, Darmstadt, Germany) supplemented with protease inhibitor for 5 min at room temperature. The resulting cell suspension was centrifuged for 5 min at 16.000 g and 4°C resulting in a supernatant containing solubilized proteins.\n(§3) Western Blot Analysis—For SDS-PAGE, 11% polyacrylamide gels were freshly prepared, followed by Western blot on nitrocellulose membranes (GE Healthcare, Freiburg, Germany). Membranes were blocked for 1 h with 5% BSA in TBS-T (TBS with 1% Tween 20). Primary antibodies were incubated overnight at 4°C. GlyR α1 wt and GlyR mutants were detected with the pan-α antibody MAb4a (Synaptic Systems, Göttingen, Germany), recognizing an epitope in the N-terminus of the GlyRs (residues 96–105). In biotinylation experiments, cadherin was chosen as loading control detected by the pan-Cadherin antibody (Cell Signaling Technology, Danvers, MA, USA). For lysate analysis, GAPDH served as a loading control (Calbiochem, Darmstadt, Germany). Signals were detected using the ECLplus system (GE Healthcare, Freiburg, Germany)."}, "[2]": {"tested_on": "GlyR α1 wt protein in HEK293 cells", "experiment": "Protein degradation analysis on whole cell lysates (Western blot) with proteasome or lysosome inhibitors", "type": "cell-based, human", "procedure": "as §1, §2, §3"}, "[3]": {"biological_target": "GlyR α1 G160A (Homo sapiens, UniProt P23415, G188A)", "sequence (P23415 29-457 G188A)": "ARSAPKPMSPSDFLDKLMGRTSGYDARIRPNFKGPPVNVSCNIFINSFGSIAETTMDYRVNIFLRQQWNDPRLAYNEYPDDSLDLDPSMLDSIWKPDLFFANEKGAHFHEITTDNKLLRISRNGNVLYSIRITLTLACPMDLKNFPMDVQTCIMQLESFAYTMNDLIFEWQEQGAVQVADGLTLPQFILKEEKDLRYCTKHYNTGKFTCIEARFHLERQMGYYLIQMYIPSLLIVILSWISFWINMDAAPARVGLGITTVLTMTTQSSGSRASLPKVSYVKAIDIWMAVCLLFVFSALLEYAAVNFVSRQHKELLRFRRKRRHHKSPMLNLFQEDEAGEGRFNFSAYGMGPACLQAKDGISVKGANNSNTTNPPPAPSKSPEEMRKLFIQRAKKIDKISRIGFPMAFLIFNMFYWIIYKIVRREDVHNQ", "settings": "100 μM glycine", "procedure": "(§4) HEK293 cells were transiently transfected using a modified calcium-phosphate precipitation method, were a mixture of plasmid DNA, CaCl2, and 2x HBS buffer (50 mM HEPES, 12 mM glucose, 10 mM KCl, 280 mM NaCl, 1.5 mM Na2HPO4) was applied onto the cells.\n(§5) Maximal current amplifications (Imax) were measured by the patch clamp technique in a whole-cell configuration mode. Current signals were amplified with an EPC-9 amplifier (HEKA, Lambrecht, Germany). […] The extracellular buffer consisted of 137 mM NaCl, 5.4 mM KCl, 1.8 mM CaCl2, 1 mM MgCl2, […], 10 mM HEPES, with a pH adjusted to 7.4 with NaOH. The internal buffer was 120 mM CsCl, 20 mM N(Et)4Cl, 1 mM CaCl2, 3 mM MgCl2, 11 mM EGTA, 10 mM HEPES with a pH adjusted to 7.4 with CsOH. Recording pipettes were fabricated from borosilicate capillaries with an open resistance of about 4 MΩ. Current responses were measured at a holding potential of −60 mV. All experiments were carried out at room temperature. Error bars refer to S.E.M. values."}, "[4]": {"biological_target": "GlyR α1 G160R (Homo sapiens, UniProt P23415, G188R)", "sequence (P23415 29-457 G188R)": "as the sequence (P23415 29-457 G188A) above, with A160R counted along it", "settings": "100 μM glycine", "procedure": "as §4, §5"}, "[5]": {"tested_on": "GlyR α1 T162 mutants", "settings": "glycine 3–10 mM", "procedure": "as §4, §5"}, "[6]": {"biological_target": "GlyR α1 T162N (Homo sapiens, UniProt P23415, T190N)", "sequence (P23415 29-457 T190N)": "as the sequence (P23415 29-457 G188A) above, with A160G, T162N counted along it", "settings": "100 μM glycine", "procedure": "as §4, §5"}, "[7]": {"biological_target": "GlyR α1 T162A (Homo sapiens, UniProt P23415, T190A)", "sequence (P23415 29-457 T190A)": "as the sequence (P23415 29-457 G188A) above, with A160G, T162A counted along it", "settings": "100 μM glycine", "procedure": "as §4, §5"}, "[8]": {"biological_target": "GlyR α1 G160S (Homo sapiens, UniProt P23415, G188S)", "sequence (P23415 29-457 G188S)": "as the sequence (P23415 29-457 G188A) above, with A160S counted along it", "settings": "100 μM glycine", "procedure": "as §4, §5"}, "[9]": {"biological_target": "GlyR α1 T162P (Homo sapiens, UniProt P23415, T190P)", "sequence (P23415 29-457 T190P)": "as the sequence (P23415 29-457 G188A) above, with A160G, T162P counted along it", "settings": "100 μM glycine", "procedure": "as §4, §5"}, "[10]": {"biological_target": "GlyR α1 T162M (Homo sapiens, UniProt P23415, T190M)", "sequence (P23415 29-457 T190M)": "as the sequence (P23415 29-457 G188A) above, with A160G, T162M counted along it", "settings": "100 μM glycine", "procedure": "as §4, §5"}, "[11]": {"biological_target": "GlyR α1 wt (Homo sapiens, UniProt P23415)", "sequence (P23415 29-457)": "as the sequence (P23415 29-457 G188A) above, with A160G counted along it", "settings": "100 μM glycine", "procedure": "as §4, §5"}, "[12]": {"biological_target": "GlyR α1 T162D (Homo sapiens, UniProt P23415, T190D)", "sequence (P23415 29-457 T190D)": "as the sequence (P23415 29-457 G188A) above, with A160G, T162D counted along it", "procedure": "as §4, §5"}},
  "note": "Read-outs that look alike come from different tables or passages of the source. Peptide text beside a SMILES is read from it. * marks the point of attachment. Cbz = O=C(OCc1ccccc1)*",
  "data": [
    {"smiles": "CC(=O)N[C@@H](CC(C)C)C(=O)N[C@@H](CC(C)C)C(=O)N[C@H](C=O)CCCNC(=N)N", "note": "[leupeptin]", "values": [
      {"measurement": "GlyR protein level after lysosomal block", "setting": "[1]; 6 h", "value": "did not show any differences"},
      {"measurement": "GlyR protein level after lysosomal block", "setting": "[1]; 12 h, in contrast to wt", "value": "reduced protein levels"},
      {"measurement": "GlyR protein level after lysosomal block", "setting": "[2]; leupeptin 200 μg/mL, 12 h", "value": "accumulations"}
    ]},
    {"smiles": "NCC(=O)O", "note": "[glycine]", "values": [
      {"measurement": "Irel current, % of the wt current", "setting": "[3]; G160A", "value": "92 ± 12", "unit": "%"},
      {"measurement": "Imax ± SEM", "setting": "[3]; α1 G160A", "value": "1453 ± 197", "unit": "pA"},
      {"measurement": "Irel current, % of the wt current", "setting": "[4]; G160R", "value": "69 ± 10", "unit": "%"},
      {"measurement": "Imax ± SEM", "setting": "[4]; α1 G160R", "value": "1089 ± 167", "unit": "pA"},
      {"measurement": "functionality compared to wt receptors", "setting": "[5]", "value": "indistinguishable from wt receptors"},
      {"measurement": "Irel current, % of the wt current", "setting": "[6]; T162N", "value": "13 ± 3", "unit": "%"},
      {"measurement": "reduction of the wt response", "setting": "[6]; T162N", "value": 85, "unit": "%"},
      {"measurement": "Imax ± SEM", "setting": "[6]; α1 T162N", "value": "447 ± 96", "unit": "pA"},
      {"measurement": "Irel current, % of maximum current of wt", "setting": "[7]; T162A", "value": "4 ± 1", "unit": "%"},
      {"measurement": "Imax ± SEM", "setting": "[7]; α1 T162A", "value": "148 ± 45", "unit": "pA"},
      {"measurement": "Irel current, % of the wt current", "setting": "[8]; G160S", "value": "68 ± 22", "unit": "%"},
      {"measurement": "Imax ± SEM", "setting": "[8]; α1 G160S", "value": "1061 ± 359", "unit": "pA"},
      {"measurement": "Irel current, % of the wt current", "setting": "[9]; T162P", "value": "29 ± 10", "unit": "%"},
      {"measurement": "Imax ± SEM", "setting": "[9]; α1 T162P", "value": "832 ± 300", "unit": "pA"},
      {"measurement": "Irel current, % of I100μM compared to wt", "setting": "[10]; T162M", "value": "11 ± 5", "unit": "%"},
      {"measurement": "Imax ± SEM", "setting": "[10]; α1 T162M", "value": "309 ± 154", "unit": "pA"},
      {"measurement": "Imax ± SEM", "setting": "[11]; wt control of the G160 series", "value": "1571 ± 260", "unit": "pA"},
      {"measurement": "Imax ± SEM", "setting": "[11]; wt control of the T162 series", "value": "2916 ± 371", "unit": "pA"},
      {"measurement": "Irel current, % of wt currents", "setting": "[12]; T162D, 100 μM glycine, measured in two out of five cells", "value": "less than 1%"},
      {"measurement": "whole cell maximal currents compared to wt", "setting": "[12]; T162D, saturating glycine 10 mM", "value": "indistinguishable from GlyR α1 wt"},
      {"measurement": "Imax ± SEM", "setting": "[12]; α1 T162D, 100 μM glycine", "value": "10 ± 6", "unit": "pA"}
    ]},
    {"smiles": "CC(C)C[C@@H](C=O)NC(=O)[C@H](CC(C)C)NC(=O)[C@H](CC(C)C)NC(=O)OCc1ccccc1", "note": "[MG132] (Cbz-Leu-Leu-Leu-aldehyde)", "values": [
      {"measurement": "GlyR protein level after proteasomal block", "setting": "[1]; 1 μM MG132, 2 h, compared to wt", "value": "significant increase"},
      {"measurement": "GlyR protein level after proteasomal block", "setting": "[2]; 1 μM MG132, 2 h", "value": "not affected"}
    ]}
  ]
}
